This is an account of results in US20240350458A1, “14-3-3 PROTEIN MODULATORS AS ANTITUMOR AGENTS” (priority 2021, published 2024).

Holding throughout (format): cell-based
Experiment [1] concerns FRO. Nature of the experiment: MTT assay, ATC cell line, fixed concentrations. To be noted: Homo sapiens, 48 h, read-out: % of proliferating cells; for viability at 0.02 µM: 20 nM; for viability at 0.1 µM: 100 nM; for viability at 20 µM: 20000 nM. The protocol:
(§1) The compounds FC91, SB14, SB17, SB18, SB19, SB20, SB21 and FC85 were employed in a cellular screening at fixed concentration ranging from 20 nM to 20 μM.
(§2) Table 2: Four human thyroid cancer cell lines were incubated with FC91, SB14, SB17, SB18, SB19, SB20A, SB20b, SB21 and FC85 for 48 h at fixed concentration of 20,100 and 20000 nM and then assayed with MTT. Data are reported as % of proliferating cells.
In general terms: Tetrazolium dyes change colour on reduction, which living cells bring about.

Experiment [2] deals with Nthory. The experiment can be described thus: MTT assay, ATC cell line, fixed concentrations. Conditions: Homo sapiens, 48 h, read-out: % of proliferating cells; for viability at 0.02 µM: 20 nM; for viability at 0.1 µM: 100 nM; for viability at 20 µM: 20000 nM. Here is the method: as §1, §2
Experiment [3] concerns SW1736. The experiment can be described thus: MTT assay, ATC cell line, fixed concentrations. To be noted: Homo sapiens, SW-1736, 48 h, read-out: % of proliferating cells; for viability at 0.02 µM: SW1736, 20 nM; for viability at 0.1 µM: SW1736, 100 nM; for viability at 20 µM: SW1736, 20000 nM. The protocol:
as §1, §2

Experiment [4] deals with 8505c. Nature of the experiment: MTT assay, ATC cell line, fixed concentrations. To be noted: Homo sapiens, 48 h, read-out: % of proliferating cells; for viability at 0.02 µM: 20 nM; for viability at 0.1 µM: 100 nM; for viability at 20 µM: 20000 nM. The protocol:
as §1, §2

The subject of experiment [5] is four human ATC cell lines. The experiment can be described thus: Cellular screening in four human ATC cell lines.
For experiment [6], the system named is eight B-cell lymphoma cell lines. The experiment can be described thus: MTT proliferation assay, panel of eight B-cell lymphoma cell lines. To be noted: for activity in lymphoma cell lines: eight lymphoma cell lines. Here is the method:
(§3) All the above compounds were tested in vitro for their anticancer activity against a panel of eight B-cell lymphoma cell lines by MTT proliferation assay. The tested cell lines belonging to mantle cell lymphoma (MCL: REC1, Z138), activated B-cell diffuse large B-cell lymphoma (ABC-DLBCL: R11, HBL1, U2932, TMD8), germinal center B-cell diffuse large B-cell lymphoma (GCB-DLBCL: SU-DHL-10, FARAGE) subtypes. In overall, MCL cell lines present Cyclin D1 overexpression, while ABC- and GCB-DLBCL's proliferation is BCR and BCL6/HDACs driven, respectively. At the RNA level, all tested lymphoma cell lines were characterized by an overexpression of 14-3-3 zeta as reported for B-cell lymphomas resistant to chemotherapeutic regimen.

The test system of experiment [7] is U2932. The experiment can be described thus: MTT proliferation assay, B-cell lymphoma cell line. Conditions: Homo sapiens; U2932, 72 h of drug incubation. The protocol: as §3
Experiment [8] relates to RI1. Nature of the experiment: MTT proliferation assay, B-cell lymphoma cell line. Conditions: Ri-1; RI1, 72 h of drug incubation. The protocol:
as §3

For experiment [9], the system named is SUDHL10. Nature of the experiment: MTT proliferation assay, B-cell lymphoma cell line. Conditions: Homo sapiens, SU-DHL10; SUDHL10, 72 h of drug incubation. Here is the method: as §3
The test system of experiment [10] is TMD8. The experiment can be described thus: MTT proliferation assay, B-cell lymphoma cell line. To be noted: Homo sapiens; TMD8, 72 h of drug incubation. Here is the method:
as §3

In experiment [11] the test system is Z138. Nature of the experiment: MTT proliferation assay, B-cell lymphoma cell line. Conditions: Homo sapiens, Z-138; Z138, 72 h of drug incubation. Here is the method: as §3
Experiment [12] deals with FARAGE. The experiment can be described thus: MTT proliferation assay, B-cell lymphoma cell line. To be noted: 72 h of drug incubation. The protocol: as §3
Experiment [13] has as its system REC1. Nature of the experiment: MTT proliferation assay, B-cell lymphoma cell line. Conditions: Homo sapiens; REC1, 72 h of drug incubation. Here is the method:
as §3

The subject of experiment [14] is HBL1. Nature of the experiment: MTT proliferation assay, B-cell lymphoma cell line. Conditions: HBL1, 72 h of drug incubation. The protocol:
as §3

Setting [15] is: Homo sapiens, in one (i.e. SB17) to four (i.e. SB20b) cell lines of anaplastic thyroid cancer, read-out: IC50 value in ATC cell lines.
Setting [16] is: human ATC cell lines, read-out: IC50 values in ATC cell lines.

Read-outs that look alike come from different tables or passages of the source. Where only a bound is given, the exact number is not on record here.

The term IC50 denotes the midpoint of a concentration-inhibition curve. With `Cc1ccc(S(=O)(=O)Nc2ccc3c(c2)C(=C2c4ccccc4-c4ccccc42)C(=O)N3)cc1` [SB21, N-(3-(9H-fluoren-9-ylidene)-2-oxoindolin-5-yl)-4-methylbenzenesulfonamide], the viability at 0.02 µM came to 93% in experiment [1], 91% in experiment [2], 108% in [3] and 82% in experiment [4]. For the same compound, the viability at 0.1 µM in [1] was 114%; in experiment [2] it was 94%; in experiment [3], 103%; in [4], 134%. The viability at 20 µM turned out to be 60% in experiment [1], 15% in [2], 64% in [3] and 37% in experiment [4]. Further, the IC50 in experiment [5] (setting [15]) is 100 to 20000 nM.

For the compound `CS(=O)(=O)Nc1ccc2c(c1)/C(=C/c1cnc[nH]1)C(=O)N2` [FC100, reference compound], in experiment [6], the “activity in lymphoma cell lines” value is “almost inactive”. The IC50 in [7] was greater than 20 µM; in [8], 5.5 µM; in [9] it was 19 µM; in experiment [10], greater than 20 µM; in [11], 8 µM; in experiment [12] it was greater than 20 µM. Moreover, the IC50 in [13] is 16 µM; in experiment [14] it was greater than 20 µM.

As to `Cc1ccc(S(=O)(=O)Nc2ccc3c(c2)C(=Cc2nccn2C)C(=O)N3)cc1` (stereo in doubt) [FC91, N-{(3E)-3-[(1-methyl-1H-imidazol-2-yl)methylidene]-2-oxo-2,3-dihydro-1H-indol-5-yl}-4-methylbenzenesulfonamide], the IC50 in [6] (B-cell, read-out: IC50 in all eight lymphoma cell lines) was less than 1000 nM; in experiment [7], 0.05 µM; in experiment [8], 0.03 µM; in experiment [9] it was 0.05 µM; in experiment [10], 0.05 µM; in experiment [11] it was 0.05 µM. Also, the IC50 was 0.025 µM in [12], 0.05 µM in [13], 0.04 µM in experiment [14] and 100 to 200 nM in experiment [5] (setting [16]). For the same compound, the “IC50 in eight different lymphoma cell lines” value in experiment [6] (eight different lymphoma cell lines) is recorded as “nanomolar range”. Further, the viability at 0.02 µM in experiment [1] is 63%; in [2], 84%; in [3] it was 73%; in experiment [4], 79%. Further, the viability at 0.1 µM was 46% in experiment [1], 55% in experiment [2], 52% in experiment [3] and 38% in experiment [4]. Also, the viability at 20 µM in experiment [1] came to 55%; in [2], 47%; in [3] it was 60%; in [4] it was 48%.

On to `Cc1ccc(S(=O)(=O)Nc2ccc3c(c2)/C(=C/c2ccn[nH]2)C(=O)N3)cc1` [SB17, (Z)—N-(3-((1H-pyrazol-5-yl)methylene)-2-oxoindolin-5-yl)-4-methylbenzenesulfonamide], for which the viability at 0.02 µM turned out to be 80% in [1], 89% in experiment [2], 81% in experiment [3] and 90% in experiment [4]. Further, the viability at 0.1 µM in experiment [1] was 113%; in experiment [2] it was 73%; in experiment [3], 99%; in experiment [4], 119%. Besides, the viability at 20 µM was 55% in [1], 48% in experiment [2], 63% in experiment [3] and 59% in experiment [4]. The IC50 in experiment [5] (setting [15]) is 100 to 20000 nM.

Regarding `Cc1ccc(S(=O)(=O)Nc2ccc3c(c2)C(=Cc2cccnc2N)C(=O)N3)cc1` [SB20, N-(3-((2-aminopyridin-3-yl)methylene)-2-oxoindolin-5-yl)-4-methylbenzenesulfonamide], the IC50 in experiment [5] (setting [15]) was in the range of 100 to 20000 nM.

Regarding `Cc1ccc(S(=O)(=O)Nc2ccc3c(c2)/C(=C/c2cn[nH]c2)C(=O)N3)cc1` [SB18, (E/Z)—N-(3-((1H-pyrazol-4-yl)methylene)-2-oxoindolin-5-yl)-4-methylbenzenesulfonamide], the viability at 0.02 µM in experiment [1] worked out at 77%; in experiment [2], 54%; in experiment [3], 77%; in experiment [4], 80%. The viability at 0.1 µM in [1] stood at 54%; in experiment [2] it was 58%; in experiment [3], 64%; in experiment [4] it was 48%. For the same compound, the viability at 20 µM in experiment [1] came out at 56%; in [2] it was 34%; in experiment [3], 59%; in experiment [4], 42%. For the same compound, the IC50 lay in the range of 100 to 20000 nM in experiment [5] (setting [15]) and 100 to 200 nM in [5] (setting [16]).

Take `Cc1ccc(S(=O)(=O)Nc2ccc3c(c2)C(=Cc2cccnc2N)C(=O)N3)cc1` [SB20A, N-(3-((2-aminopyridin-3-yl)methylene)-2-oxoindolin-5-yl)-4-methylbenzenesulfonamide]: the viability at 0.02 µM in experiment [1] was determined as 85%; in experiment [2], 99%; in experiment [3], 82%; in experiment [4] it was 78%. The figures for the viability at 0.1 µM in experiment [2], in [3] and in experiment [4] were 77%, 89% and 99%, respectively. Also, the viability at 20 µM in experiment [2] was found to be 63%; in experiment [4], 35%.

As for `Cc1ccc(S(=O)(=O)Nc2ccc3c(c2)/C(=C/c2cnc(C)[nH]2)C(=O)N3)cc1` [SB14, (Z)-4-methyl-N-(3-((2-methyl-1H-imidazol-5-yl)methylene)-2-oxoindolin-5-yl)benzenesulfonamide], the viability at 0.02 µM amounted to 92% in [1], 95% in experiment [2], 84% in [3] and 97% in experiment [4]. Also, the viability at 0.1 µM came to 113% in [1], 77% in [2], 102% in [3] and 128% in experiment [4]. Moreover, the viability at 20 µM turned out to be 57% in experiment [1], 41% in experiment [2], 70% in experiment [3] and 65% in experiment [4]. Also, the IC50 in experiment [5] (setting [15]) lay within 100 to 20000 nM.

As to `Cc1ccc(S(=O)(=O)Nc2ccc3c(c2)/C(=C/c2ncc[nH]2)C(=O)N3)cc1` [SB19, (Z)—N-(3-((1H-imidazol-2-yl)methylene)-2-oxoindolin-5-yl)-4-methylbenzenesulfonamide], the viability at 0.02 µM in experiment [1] was found to be 78%; in [2] it was 81%; in [3], 80%; in experiment [4], 74%. Further, the viability at 0.1 µM in [1] was 74%; in experiment [2] it was 61%; in experiment [3], 85%; in [4], 74%. Also, the viability at 20 µM amounted to 51% in experiment [1], 43% in experiment [2], 59% in [3] and 37% in experiment [4]. Besides, the IC50 in [5] (setting [15]) lay in the range of 100 to 20000 nM; in [5] (setting [16]), 100 to 200 nM.

`CS(=O)(=O)Nc1ccc2c(c1)/C(=C/c1cccs1)C(=O)N2` [FC96, reference compound]: in experiment [6], the “activity in lymphoma cell lines” value is “almost inactive”. Further, the IC50 in [7] is greater than 20 µM; in experiment [8], 20 µM; in experiment [9] it was greater than 20 µM; in [10], greater than 20 µM; in experiment [11], greater than 20 µM; in experiment [12], greater than 20 µM. Moreover, the IC50 in experiment [13] is 15 µM; in [14], greater than 20 µM.
